Experimental data from patent US20230149381A1, “BREAST CANCER THERAPEUTIC AGENT” (Eisai R&D Management Co., Ltd., priority 2020, published 2023).

How the values were obtained:
[1] = system: human breast cancer patient-derived tumor (OD-BRE-0438); assay: Growth inhibition effect of compound A after palbociclib and fulvestrant administration, patient-derived tumor graft in mice; format: in vivo; conditions: NOD-SCID mice, after 14 days palbociclib + fulvestrant
Description: Example 1 Growth inhibition effect of compound A after palbociclib and fulvestrant administration for human breast cancer patient-derived tumor (OD-BRE-0438) Using NOD-SCID mice (NOD.CB17-Prkdcscid/J, female, Charles River Japan), with 5 to 6 mice per group, the antitumor effect of administering compound A after completion of an administration period with palbociclib and fulvestrant was evaluated.
OD-BRE-0438 is a tumor line from an estrogen receptor-positive breast cancer patient, established by Oncodesign Co. The tumor slices were grafted under the mouse skin and subcultured. The tumors excised from the mice were cut to about 4 mm-square, and a trocar (φ3.5 mm) was used for grafting under the skin of the right flank of each mouse.
A 1 mg/mL solution of β-estradiol (FujiFilm-Wako) was prepared with 99.5% ethanol (FujiFilm-Wako). It was then adjusted to a final concentration of 2.5 μg/mL using supply-use sterilized water. The mouse were given free access to food from the day of tumor grafting until the end of the test.
(§1) The long and short diameters of the tumors were measured using an electronic digital caliper (Digimatic™ caliper by Mitsutoyo Corp.). The tumor volumes were calculated by the following formula.
(§2) Tumor volume (mm^3)=Long diameter (mm)×short diameter (mm)×short diameter (mm)/2
Commercially available palbociclib isethionate (Selleck Chemicals) was adjusted to 10 mg/mL concentration with 50 mM sodium lactate buffer (pH 4.0). A commercially available fulvestrant formulation (trade name: Faslodex Intramuscular Injection 250 mg, by AstraZeneca) was used directly.
Palbociclib and fulvestrant administration was initiated from the 26th day after tumor grafting. Palbociclib was orally administered once per day for 14 days at a dosage of 100 mg/kg (10 mL/kg). Fulvestrant was hypodermically injected on the 26th and 33rd day, at a dosage of 250 mg/kg (5 mL/kg).
On the 40th day, the mice were divided into groups in such a manner that the average tumor volumes were approximately the same in each group. The control group consisted of 6 mice, and the compound A-administered group consisted of 5 mice, at different dosages.
Compound A was dissolved in purified water to a concentration of 2.5 mg/mL. Compound A was orally administered to the mice in each group at a dose of 25 mg/kg (10 mL/kg) or 50 mg/kg (20 mL/kg), once per day for 14 days. The control group was untreated.
The tumor volume and body weight of each mouse were measured on day 3, 7, 10 and 14 after starting administration of compound A. The changes in mean tumor volume in each group are shown in Table 1 and FIG. 1.

[2] = system: human breast cancer patient derived tumor (OD-BRE-0438); assay: Growth inhibiting effect of compound A on patient-derived tumor graft in mice (Reference Example 1, no pretreatment); format: in vivo; conditions: NOD-SCID mice
Description: as §1, §2
Reference Example 1 Growth inhibiting effect of compound A on human breast cancer patient derived tumor (OD-BRE-0438)
The antitumor effect of administering compound A was evaluated using NOD-SCID mice (NOD.CB17-Prkdcscid/J, female, Charles River Japan), with 6 mice per group.
Tumor slices were grafted under the mouse skin and subcultured. The tumors excised from the mice were cut to about 4 mm-square, and a trocar ((φ3.5 mm) was used for grafting under the skin of the right flank of each mouse, for evaluation of the antitumor effect.
A 1 mg/mL solution of β-estradiol (FujiFilm-Wako) was prepared with 99.5% ethanol (FujiFilm-Wako). It was then adjusted to a final concentration of […] using supply-use sterilized water. The mice were given free access to food from the day of tumor grafting until the end of the test.
Compound A was dissolved in purified water to a concentration of 2.5 mg/mL. On the 32nd day after tumor grafting, the mice were divided into groups in such a manner that the average tumor volumes were approximately the same in each group. The tumor volumes were calculated by the same method as Example 1.
Compound A was orally administered to the mice in each group at a dose of 50 mg/kg (20 mL/kg), once per day for 14 days. The control group was untreated.
The tumor volume and body weight of each mouse were measured on day 3, 7, 10 and 14 after starting administration of compound A. The changes in mean tumor volume in each group are shown in Table 2 and FIG. 2.

[3] = Day 0 (baseline at grouping), compound A 50 mg/kg oral once per day
[4] = Day 3, compound A 50 mg/kg oral once per day
[5] = Day 7, compound A 50 mg/kg oral once per day
[6] = Day 10, compound A 50 mg/kg oral once per day
[7] = Day 14, compound A 50 mg/kg oral once per day

Structure (SMILES): CNC(=O)n1ccc2cc(Oc3ccnc(NC(=O)c4ccc(C5CCN(CCO)CC5)cc4)c3)c(OCCOC)cc21 [Compound A, 5-((2-(4-(1-(2-hydroxyethyl)piperidin-4-yl)benzamide)pyridin-4-yl)oxy)-6-(2-methoxyethoxy)-N-methyl-1H-indole-1-carboxamide]
- mean tumor volume ([1]; Day 0 (baseline at grouping), compound A 25 mg/kg oral once per day): 261.4 mm^3
- mean tumor volume [1, 3]: 262.6 mm^3
- mean tumor volume ([1]; Day 3, compound A 25 mg/kg oral once per day): 211.9 mm^3
- mean tumor volume [1, 4]: 174.8 mm^3
- mean tumor volume ([1]; Day 7, compound A 25 mg/kg oral once per day): 167.6 mm^3
- mean tumor volume [1, 5]: 136.1 mm^3
- mean tumor volume ([1]; Day 10, compound A 25 mg/kg oral once per day): 138.3 mm^3
- mean tumor volume [1, 6]: 110.4 mm^3
- mean tumor volume ([1]; Day 14, compound A 25 mg/kg oral once per day): 134.1 mm^3
- mean tumor volume [1, 7]: 96.6 mm^3
- mean tumor volume [2, 3]: 234.1 mm^3
- mean tumor volume [2, 4]: 267.0 mm^3
- mean tumor volume [2, 5]: 338.8 mm^3
- mean tumor volume [2, 6]: 380.8 mm^3
- mean tumor volume [2, 7]: 403.4 mm^3
